In brackets after ≈: the same amount, converted by molar mass. Like-named read-outs stand apart in the source and are kept apart here.
Assays:
[1] = target: T1, recombinant human GST-Syk (Homo sapiens, UniProt P43405); experiment: Homogeneous Time-Resolved Fluorescence (HTRF) assay for the recombinant human Syk enzyme; format: biochemical; details: recombinant human GST-Syk 5 pM, ATP 25 μM, read-out: IC50
T1 construct: purchased Carna Biosciences 08-176
Procedure, shortened: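 Recombinant GST-hSyk phosphorylates a biotinylated peptide for 45 min at room temperature. Quenched with EDTA buffer containing 2 nM Eu-anti-phosphotyrosine antibody and 70 nM SA-APC; HTRF read after 30 min.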

[2] = Solubility in biorelevant fasted state simulated intestinal fluid (FaSSIF); format: physicochemical; details: 25 °C, fassif, kinetic from dmso stock
Procedure, shortened: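 Compound from 10 mM DMSO stock diluted into FaSSIF (maximum solubility approximately 200 μM), equilibrated, then filtered by centrifugation through a 0.45 μm polypropylene membrane. Filtrate and a 100 μM standard analysed by HPLC/DAD; solubility = (sample peak area/standard peak area) × standard concentration.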

[3] = Conversion of prodrug to parent in intestine homogenate; format: in vitro ADME; details: prodrug 1 μM, intestine S9 1 mg protein/mL, 37° C., pH 7.4, 2 h
Procedure: Conversion of Prodrug to Parent in Intestine Homogenate:
(§1) The likely stability of prodrugs in the intestine can be estimated by incubating a prodrug with intestine homogenate. Incubations of prodrugs (1 μM) with intestine S9 (1 mg protein/mL) were carried out at 37° C. in a phosphate buffer, pH 7.4. Control incubations contained BSA (1.1 mg/mL) instead of intestine S9 microsomes. Aliquots were removed at 0, 5, 15, 30, 60 and 120 min, treated with 4 volumes of acetonitrile containing 2% formic acid and an internal standard, and centrifuged. The supernatants were analyzed by LC-MS/MS for prodrug disappearance and appearance of active drug. The half-life of the prodrug was calculated from the % prodrug remaining at different time points calculated from on the peak area ratio relative to t=0. The amount of active drug generated at the different time points was determined using a standard curve.

[4] = Conversion of prodrug to parent in liver homogenate; format: in vitro ADME; details: prodrug 1 μM, liver S9 1 mg protein/mL, 37° C., pH 7.4, 2 h
Procedure: Conversion of Prodrug to Parent in Liver Homogenate:
as §1, with “liver” for “intestine”

Blood stability assay = format: in vitro ADME; details: whole blood; human blood, 37° C.
Procedure: The likely stability of prodrugs in the blood can be estimated by incubating a prodrug with blood. A prodrug stock solution was prepared at 10 mM in DMSO and working solutions (100 μM) containing the prodrug were prepared by diluting a suitable amount of the stock solution with acetonitrile/water (50/50). 5 μL of the working solution were added to 495 μL of pre-warmed blood (at 37° C.). After vortexing and mixing, 50 μL of the spiked blood sample were taken for the 0 time point and transferred to another vial containing 200 μL of quenching solution (labetalol, alprazolam and diclofenac in 100% acetonitrile) ensuring that the vial is lidded to prevent evaporation and kept on ice. While keeping the spiked blood sample at 37° C. at the following timepoints (0.25, 0.5, 1, 2 and 3 h) 5 additional aliquots (50 μL) were sampled and mixed with the quenching solution. At the end of the experiment the quenched samples were vortexed for 2 minutes and centrifuged for 10 minutes at 4000 rpm. The supernatant (100 μL) was then transferred and collected into a new 96-well plate and injected into the LC-MS/MS for analysis. For each test compound, the area ratios at each time point to the 0 hour area ratio were compared and converted to a percentage remaining. The percentage remaining were then plotted against time (h) and half life generated using the following equation t½=0.693/kel. Where kel is the elimination rate constant which is determined from the concentration versus time curve by linear regression at the terminal phase of the semi-logarithmic plot.

[5] = Conversion of prodrug to parent in in vitro biorelevant gastrointestinal tract media; format: in vitro ADME; details: 37° C.; for Conversion in SGF, time: simulated gastric fluid
Procedure: Conversion of Prodrug to Parent in In Vitro Biorelevant Gastrointestinal Tract Media: The likely stability of prodrugs in the gastrointestinal tract can be estimated by incubating a prodrug in simulated gastric and intestinal fluids; compounds were measured for stability in simulated gastric fluid (SGF), fasted state simulated intestinal fluid (FaSSIF), and fasted state simulated intestinal fluid plus pancreatin (FaSSIF+pancreatin). Prodrug stock solutions were made by diluting 2 mg of compound in 200 μL DMSO. A 10 mg/mL Pancreatin in FaSSIF stock solution was made by dissolving 10 mg Pancreatin in 1 mL FaSSIF. Samples were prepared by diluting 10 μL of compound stock solution into 990 μL of biorelevant media (990 μL SGF, 990 μL FaSSIF, or 940 μL FaSSIF plus 50 μL Pancreatin stock) in a 2 mL HPLC vial and vortexing the mixture for a few seconds. The samples were incubated at 37° C. and aliquots were removed for up to 24 hours and injected directly on an HPLC to determine the conversion of prodrug to active drug. In the case of compound precipitation upon sample preparation, an individual sample was prepared for each desired time point and the entire sample was diluted with a known volume of acetonitrile/water (50/50) to ensure compound dissolution before HPLC analysis.

Row | SMILES | IC50 [1] [nM] | solubility ([2]; Solubility) [µM] | Prodrug concentration at 2 h [3] [µM] | Prodrug concentration at 2 h [4] [µM] | half-life at 1 μM (Blood stability assay) [min] | Conversion in FaSSIF + Pancreatin, time ([5]; 3 h) | Conversion in FaSSIF, time ([5]; 5 h) | Conversion in SGF, time ([5]; 5 h) | solubility ([2]; FaSSIF (fasted state simulated intestinal fluid), FaSSIF, equilibrated overnight at 25° C., maximum solubility approximately 200 μM, read-out: Solubility) [µM] | Conversion in FaSSIF, time ([5]; 3 h)
1 | Cc1cc(Nc2cc(C(F)F)ccn2)nc(-c2ccc([C@](C)(O)[C@H]3CC[C@H](C(=O)OCC[S@@+](C)[O-])CC3)nc2)c1 (single isomer, unassigned) [Example 7-1a] | 4.2 | 56 (≈ 32.1 µg/mL) | 0.385 | 0 |  |  |  |  |  | 
2 | Cc1cc(Nc2cc(C(F)F)ccn2)nc(-c2ccc([C@](C)(O)[C@H]3CC[C@H](C(=O)OCCS(C)(=O)=O)CC3)nc2)c1 [Example 1-8, 2-(methylsulfonyl)ethyl trans-4-[(1R)-1-(6-{[4-(difluoromethyl)pyridin-2-yl]amino}-4-methyl-2,3′-bipyridin-6′-yl)-1-hydroxyethyl] cyclohexanecarboxylate] | 4 |  |  |  | 22 |  |  |  |  | 
3 | CCOCCOCCOC(=O)OCOC(=O)[C@H]1CC[C@H]([C@@](C)(O)c2ccc(-c3cc(C)cc(Nc4cc(C(F)F)ccn4)n3)cn2)CC1 [Example 2-2, 3-oxo-2,4,7,10-tetraoxadodec-1-yl trans-4-[(1R)-1-(6-{[4-(difluoromethyl)pyridin-2-yl]amino}-4-methyl-2,3′-bipyridin-6′-yl)-1-hydroxyethyl]cyclo hexanecarboxylate] | 174 |  | 0 | 0 | 7 | 100%, 3 h | 0%, 5 h | 0%, 5 h |  | 
4 | CCOCCOCCOC(=O)OC(C)OC(=O)[C@H]1CC[C@H]([C@@](C)(O)c2ccc(-c3cc(C)cc(Nc4cc(C(F)F)ccn4)n3)cn2)CC1 (stereo partly drawn) [Example 2-14, 1-methyl-3-oxo-2,4,7,10-tetraoxadodec-1-yl trans-4-[(1R)-1-(6-{[4-(difluoromethyl)pyridin-2-yl]amino}-4-methyl-2,3′-bipyridin-6′-yl)-1-hydroxyethyl]cyclo hexanecarboxylate] | 30.4 |  |  |  | 199 |  |  |  |  | 
5 | Cc1cc(Nc2cc(C(F)F)ccn2)nc(-c2ccc([C@](C)(O)[C@H]3CC[C@H](C(=O)OCOC(=O)CC(C)(C)O)CC3)nc2)c1 [Example 3-4, [(3-hydroxy-3-methylbutanoyl)oxy] methyl trans-4-[(1R)-1-(6-{[4-(difluoromethyl)pyridin-2-yl]amino}-4-methyl-2,3′-bipyridin-6′-yl)-1-hydroxyethyl]cyclohexane carboxylate] | 1.8 | 59 (≈ 36.1 µg/mL) |  |  | 14 |  |  |  |  | 
6 | COCCOCCOCC(=O)OCOC(=O)[C@H]1CC[C@H]([C@@](C)(O)c2ccc(-c3cc(C)cc(Nc4cc(C(F)F)ccn4)n3)cn2)CC1 [Example 3-29, 3-oxo-2,5,8,11-tetraoxadodec-1-yl trans-4-[(1R)-1-(6-{[4-(difluoromethyl)pyridin-2-yl]amino}-4-methyl-2,3′-bipyridin-6′-yl)-1-hydroxyethyl]cyclohexane carboxylate] | 1.2 | 41 (≈ 27.6 µg/mL) |  |  | 29 |  |  |  |  | 
7 | COCCN(C)C(=O)OCOC(=O)[C@H]1CC[C@H]([C@@](C)(O)c2ccc(-c3cc(C)cc(Nc4cc(C(F)F)ccn4)n3)cn2)CC1 [Example 4-2, {[(2-methoxyethyl)(methyl)carbamoyl]oxy}methyl trans-4-[(1R)-1-(6-{[4-(difluoromethyl)pyridin-2-yl]amino}-4-methyl-2,3′-bipyridin-6′-yl)-1-hydroxyethyl]cyclohexanecarboxylate] | 9.1 |  |  |  | 16 |  |  |  |  | 
8 | Cc1cc(Nc2cc(C(F)F)ccn2)nc(-c2ccc([C@](C)(O)[C@H]3CC[C@H](C(=O)OC[N+]4(C)CCOCC4)CC3)nc2)c1.[I-] [Example 5-1, 4-{[({trans-4-[(1R)-1-(6-{[4-(Difluoromethyl)pyridin-2-yl]amino}-4-methyl-2,3′-bipyridin-6′-yl)-1-hydroxyethyl]cyclohexyl}carbonyl)oxy]methyl}-4-methylmorpholin-4-ium] | 3.6 |  | 0.321 | 0.314 | 15 | 45%, 3 h |  | 0%, 5 h | 200 | 12%, 3 h
9 | Cc1cc(Nc2cc(C(F)F)ccn2)nc(-c2ccc([C@](C)(O)[C@H]3CC[C@H](C(=O)OCn4cc[n+](C)c4)CC3)nc2)c1 [Example 6-1, 1-{[({Trans-4-[(1R)-1-(6-{[4-(Difluoromethyl)pyridin-2-yl]amino}-4-methyl-2,3′-bipyridin-6′-yl)-1-hydroxyethyl]cyclohexyl}carbonyl)oxy]methyl}-3-methyl-1H-imidazol-3-ium] | 0.8 | 140 | 0.844 | 0.622 | 24 |  |  |  |  | 
10 | Cc1cc(Nc2cc(C(F)F)ccn2)nc(-c2ccc([C@](C)(O)[C@H]3CC[C@H](C(=O)OCOC(=O)OCCOCCOCCOCCOP(=O)(O)O)CC3)nc2)c1 [Example 8-1, 17,17-Dihydroxy-17-oxido-3-oxo-2,4,7,10,13,16-hexaoxa-17λ^5-phosphaheptadec-1-yl trans-4-[(1R)-1-(6-{[4-(difluoromethyl)pyridin-2-yl]amino}-4-methyl-2,3′-bipyridin-6′-yl)-1-hydroxyethyl]cyclohexanecarboxylate] | < 0.5 | 154 (≈ 125 µg/mL) | 0 | 0 |  |  |  |  |  | 
11 | Cc1cc(Nc2cc(C(F)F)ccn2)nc(-c2ccc([C@](C)(O)[C@H]3CC[C@H](C(=O)OCCOP(=O)(O)O)CC3)nc2)c1 [Example 8-2, 2-(phosphonooxy)ethyl trans-4-[(1R)-1-(6-{[4-(difluoromethyl)pyridin-2-yl]amino}-4-methyl-2,3′-bipyridin-6′-yl)-1-hydroxyethyl]cyclohexane-carboxylate] | < 0.5 | 161 (≈ 97.7 µg/mL) | 0.249 | 0.434 |  | 20%, 3 h | 0%, 5 h | 0%, 5 h |  | 

— patent publication US20150299125A1, “PRODRUG BIPYRIDYLAMINOPYRIDINES AS SYK INHIBITORS” (MERCK SHARP & DOHME CORP., priority 2012, published 2015)
